# How the values were obtained:
# [1] = test system: right atrium cordis of guinea pigs; test: Heart rate of the spontaneously beating, isolated right atrium cordis; set-up: species or system female albino Pirbright-white guinea pigs; details: Cavia porcellus, 20 min; 20 minutes after administration; administered as di-tartrate; read-out: FRQ 75% (concentration decreasing heart rate to 75% of initial value)
# Description: The direct effect of the active compound on the heart rate (FPQ) was tested on the spontaneously beating, isolated right atrium cordis of female albino Pirbright-white guinea pigs (GP) of the weight class between 300 g. and 400 g. In Table 3 there is given, as FPQ 75%, the concentration in μmole/l. by which a decrease of the heart rate to 75% of the initial value is achieved 20 minutes after administration of the compound to be tested.
# [2] = test system: left atrium cordis of guinea pigs; test: Functional refractory period and contractile force of the electrically stimulated left atrium cordis (paired stimulation, method of Govier); set-up: species or system female albino Pirbright-white guinea pigs; details: for EC (125%) / IC25: Cavia porcellus, administered as di-tartrate; for EC (125%): 0.3 h, 18 minutes after administration, read-out: FRP 125% (concentration prolonging functional refractory period to 125%); for IC25: left atrium, read-out: F 75% (concentration reducing contractile force to 75% of initial value); for quotient F 75%/FRP 125%: therapeutic index of the anti-arrhythmic action on the isolated organ
# Source text: 148, No. 1, pages 100-105 (1965). All anti-arrhythmic drugs which at present are used in therapy and which differ in their chemical structure are distinguished by being able to prolong the functional refractory period. In addition thereto said method permits to detect the effects of compounds on the contractile force of the myocardium. […] Said quotient supplies information regarding the therapeutic index of the anti-arrhythmic action of a compound on the isolated organ. See P. Greef in Verhandlung der Deutschen Gesellschaft fuer Kreislaufforschung vol. 35, pages 88-97 (1969).
# [3] = test system: aconitine-induced ventricular extrasystoles in rats; test: Anti-arrhythmic activity, aconitine test in rats (method of Raschak); format: in vivo, male Wistar rats; details: for Change in time to occurrence of ES: vs vehicle control
# Description: When administering aconitine to rats by continuous intravenous infusion, there are observed in the electrocardiogram considerable disturbances in the heartbeat, such as, for instance, ventricular extrasystoles. The tested animals were male Wistar rats of the weight class between 250 g. and 350 g. The influence of an active compound according to the present invention upon such rats after an aconitine infusion was determined according to the method of Raschak as described by M. Raschak in Arzneim. Forsch. vol. 25, No. 4, pages 639-641 (1975). […] The active compound was administered intravenously in the form of an isotonic sodium chloride solution, i.e. the vehicle, in a dose of 6.0 μmole/kg. The dose administered is one twenthieth of the lethal dose (LD50) as determined on mice. […] After intravenous administration of the active compound to be tested and of the control solution, the aconitine solution was administered by infusion in an amount which was constant per time unit. The period of time was measured within which ventricular extrasystoles (ES) were observed. Said period of time, in minutes, is given in Table 2 as well as the difference in the period of time observed on administering the test compound and the control solution.
# One of the active compounds tested is the compound of Example 3, No. 302, i.e., N,N-di-n-butyl-9,9-dimethyl-3,7-diaza bicyclo-(3,3,1)-nonane as described hereinafter. There are also given the results obtained by testing an equitoxic amount of the drug known under the trademark "Lidocain", i.e., 2-(diethylamino)-N-(2,6-dimethyl phenyl)-acetamide.
# Anti-arrhythmic activity determined by the […]
# [4] = test system: anesthetized rats; test: Effect on heart rate, systolic blood pressure and double product (myocardial oxygen consumption, method of Neill); format: in vivo; details: administered as ditartrate; for Change DP: vs initial value
# Description: The influence of the active compounds according to the present invention on myocardial oxygen consumption has been investigated in animal models and determined according to the method of Neill as described by W. A. Neill, H. H. Levine, R. J. Wagman, and P. Gorlin in Circulation Research, Vol. 12, page 163 (1963). The blood circulation measurements which are required for these tests, namely, systolic blood pressure and heart rate, were determined according to the design of experimental procedure as described by G. Buschmann, W. Schumacher, R. Budden, and U. G. Kuehl in J. Cardiovasc. Pharmacol., Vol. 2, pages 777-795 (1980). As is evident from the following Table 1, the active compound reduces the product* of heart rate and systolic blood pressure. Thus, the tested compound reduces the consumption of oxygen to be supplied to the heart. This effect is observed in intravenous administration (i.v.) as well as on intraduodenal administration (i.d.) and is to be attributed to the action of the compound tested.
# Effect upon heart rate (FRQ), systolic blood pressure (Ps)
# and the double product (DP) determined on anesthetized rats
# [5] = in vivo; details: mouse, po, peroral administration, mice
SMILES,IC25 [1],EC (125%) [2],IC25 [2],quotient F 75%/FRP 125% [2],"Time to occurrence of ES (ventricular extrasystoles) ([3]; 6.0 μmole/kg i.v., vehicle control 6.7 min, administered as di-tartrate)","Change in time to occurrence of ES ([3]; 6.0 μmole/kg i.v., administered as di-tartrate)","DP (double product of heart rate and systolic blood pressure) ([4]; 13.5 μmole/kg i.v., initial value 39)","Ps (systolic blood pressure) ([4]; 13.5 μmole/kg i.v., initial value 104)","FRQ (heart rate) ([4]; 13.5 μmole/kg i.v., initial value 372)",Change DP ([4]; 13.5 μmole/kg i.v.),"DP (double product of heart rate and systolic blood pressure) ([4]; 100 μmole/kg i.d., initial value 41)","Ps (systolic blood pressure) ([4]; 100 μmole/kg i.d., initial value 101)","FRQ (heart rate) ([4]; 100 μmole/kg i.d., initial value 406)",Change DP ([4]; 100 μmole/kg i.d.),LD50 [5],"Time to occurrence of ES (ventricular extrasystoles) ([3]; 10.0 μmole/kg i.v. (equitoxic amount), vehicle control 6.3 min)",Change in time to occurrence of ES ([3]; 10.0 μmole/kg i.v. (equitoxic amount))
"CN1CC2CN(C)CC(C1)C2(C)C [Comparative compound, N,N',9,9-tetramethyl diaza bicyclo-(3,3,1)-nonane, reference compound]",~215 µM,122 µM,~215 µM,about 2,–,–,–,–,–,–,–,–,–,–,–,–,–
"CCCCN1CC2CN(CCCC)CC(C1)C2(C)C [Example 3, No. 302, N,N'-di-n-butyl-9,9-dimethyl-3,7-diaza bicyclo-(3,3,1)-nonane]",3 µM,1 µM,104 µM,104,8.2 min,+23%,25 mm.Hg/min. × 1000,147 mm.Hg,174 min⁻¹,-36%,30 mm.Hg/min. × 1000,125 mm.Hg,238 min⁻¹,-27%,1040 µmol/kg,–,–
"CCN(CC)CC(=O)Nc1c(C)cccc1C [Lidocain, 2-(diethylamino)-N-(2,6-dimethylphenyl)-acetamide, reference compound]",–,–,–,–,–,–,–,–,–,–,–,–,–,–,–,6.6 min,+5%

# Source: patent publication US4742172A, “Intermediates for synthesizing pharmaceutically active 3,7-diazabicyclo-(3,3,1)-nonane compounds” (Kali-Chemie Pharma GmbH, priority 1982, dated 1988)
